Assay results: ChEMBL document CHEMBL1156116, “Histone deacetylase and microtubules as targets for the synthesis of releasable conjugate compounds” (Bioorg Med Chem Lett, 2009)
Active and inactive are the calls of the source. The calls are words filed in the database; no cut-off is given here.

Assays:
[1] = target: Histone deacetylase 1 (Homo sapiens) (UniProt Q13547); test: Inhibition of human HDAC1 in human IGROV1 cells assessed as histone H4 acetylation after 4 hrs by Western blot analysis; type: cell-based; details: IGROV-1
Sequence of Histone deacetylase 1 (Homo sapiens) (Q13547 whole entry): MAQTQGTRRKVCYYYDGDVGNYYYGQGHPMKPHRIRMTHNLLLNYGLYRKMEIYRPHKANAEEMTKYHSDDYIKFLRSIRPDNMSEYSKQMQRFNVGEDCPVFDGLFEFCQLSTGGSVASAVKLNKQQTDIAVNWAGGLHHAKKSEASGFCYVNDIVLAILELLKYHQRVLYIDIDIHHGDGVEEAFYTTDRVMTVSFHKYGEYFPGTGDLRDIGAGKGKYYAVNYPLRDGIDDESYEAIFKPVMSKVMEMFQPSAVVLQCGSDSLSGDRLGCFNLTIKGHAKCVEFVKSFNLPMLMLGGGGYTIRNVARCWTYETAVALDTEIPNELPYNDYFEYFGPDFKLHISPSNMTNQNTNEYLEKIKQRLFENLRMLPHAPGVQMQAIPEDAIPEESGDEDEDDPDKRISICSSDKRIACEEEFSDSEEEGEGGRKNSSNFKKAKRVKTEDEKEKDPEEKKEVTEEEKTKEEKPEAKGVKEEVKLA

IGROV-1 [2] = test: Antiproliferative activity against human IGROV1 cells assessed as growth inhibition after 72 hrs by Coulter counting analysis; type: functional, cell-based; details: IGROV-1, 72 h
[3] = target: T1, Protein deacetylase HDAC6 (Homo sapiens) (UniProt Q9UBN7); test: Inhibition of human HDAC6 in human IGROV1 cells assessed as alpha-tubulin acetylation after 4 hrs by Western blot analysis; type: cell-based; details: IGROV-1
T1 sequence (whole entry): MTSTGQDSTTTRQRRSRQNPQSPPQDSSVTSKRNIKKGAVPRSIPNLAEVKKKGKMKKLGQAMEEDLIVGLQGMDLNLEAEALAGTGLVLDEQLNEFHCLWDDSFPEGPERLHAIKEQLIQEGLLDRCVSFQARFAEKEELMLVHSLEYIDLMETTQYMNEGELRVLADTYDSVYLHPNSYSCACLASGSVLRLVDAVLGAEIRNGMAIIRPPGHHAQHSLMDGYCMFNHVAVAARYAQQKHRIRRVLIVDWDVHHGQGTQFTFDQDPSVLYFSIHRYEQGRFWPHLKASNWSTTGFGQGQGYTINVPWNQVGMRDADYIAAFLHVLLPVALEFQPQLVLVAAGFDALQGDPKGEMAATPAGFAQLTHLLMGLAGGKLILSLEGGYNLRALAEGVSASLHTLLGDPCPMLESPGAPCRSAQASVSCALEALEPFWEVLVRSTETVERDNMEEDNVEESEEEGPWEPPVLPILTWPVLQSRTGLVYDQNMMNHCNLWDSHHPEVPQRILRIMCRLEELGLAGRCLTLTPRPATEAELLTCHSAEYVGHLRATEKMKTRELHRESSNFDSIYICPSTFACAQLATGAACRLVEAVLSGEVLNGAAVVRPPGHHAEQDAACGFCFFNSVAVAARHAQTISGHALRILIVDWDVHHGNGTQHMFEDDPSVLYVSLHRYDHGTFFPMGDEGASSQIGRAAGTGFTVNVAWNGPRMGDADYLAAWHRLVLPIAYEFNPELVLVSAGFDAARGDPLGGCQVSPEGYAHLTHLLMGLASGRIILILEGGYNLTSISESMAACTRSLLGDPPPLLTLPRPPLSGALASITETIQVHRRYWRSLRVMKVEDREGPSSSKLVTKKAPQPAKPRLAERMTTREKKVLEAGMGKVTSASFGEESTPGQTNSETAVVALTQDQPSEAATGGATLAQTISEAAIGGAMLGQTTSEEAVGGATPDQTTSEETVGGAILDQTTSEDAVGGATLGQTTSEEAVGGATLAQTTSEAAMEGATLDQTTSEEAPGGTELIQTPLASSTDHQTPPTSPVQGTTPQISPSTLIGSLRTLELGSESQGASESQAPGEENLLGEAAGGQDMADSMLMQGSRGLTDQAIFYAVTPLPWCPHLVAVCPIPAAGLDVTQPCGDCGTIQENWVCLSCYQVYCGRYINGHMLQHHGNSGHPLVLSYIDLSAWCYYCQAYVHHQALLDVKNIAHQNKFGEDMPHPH

[4] = target: Histone deacetylase 1 (Homo sapiens) (UniProt Q13547); test: Inhibition of human HDAC1 in human IGROV1 cells assessed as histone H4 acetylation at 0.1 uM after 4 hrs by Western blot analysis; type: cell-based; details: IGROV-1
[5] = target: T1, Protein deacetylase HDAC6 (Homo sapiens); test: Inhibition of human HDAC6 in human IGROV1 cells assessed as alpha-tubulin acetylation at 0.1 uM after 48 hrs by Western blot analysis; type: cell-based; details: IGROV-1
[6] = target: T1, Protein deacetylase HDAC6 (Homo sapiens); test: Inhibition of human HDAC6 in human IGROV1 cells assessed as alpha-tubulin acetylation at 0.33 to 0.1 uM after 48 hrs by Western blot analysis; type: cell-based; details: IGROV-1
IGROV-1 [7] = test: Induction of apoptosis in human IGROV1 cells at IC80 concentration by TUNEL assay; type: functional

| SMILES | IC50 (IGROV-1 [2]) | other results |
| --- | --- | --- |
| O=C(/C=C/c1ccc(CNCc2ccccc2)cc1)NO | 480 nM | inhibition [1]: Dose-dependent effect; inhibition [3]: Dose-dependent effect |
| CC(C)(C)OC(=O)N(Cc1ccccc1)Cc1ccc(/C=C/C(=O)NO)cc1 | 19100 nM |  |
| CC(=O)O[C@H]1C(=O)[C@@]2(C)[C@H]([C@H](OC(=O)c3ccccc3)[C@]3(O)C[C@H](OC(=O)[C@H](O)[C@@H](NC(=O)c4ccccc4)c4ccccc4)C(C)=C1C3(C)C)[C@]1(OC(C)=O)CO[C@@H]1C[C@@H]2O [PACLITAXEL] | 60 nM |  |
| COc1cc2c(c(OC)c1OC)-c1ccc(SC)c(=O)cc1[C@@H](NC(=O)CCCSSCCCC(=O)N[C@H]1CCc3cc(OC)c(OC)c(OC)c3-c3ccc(SC)c(=O)cc31)CC2 | 50 nM | inhibition [4]: Active; inhibition [5]: Active |
| CC(C)(C)OC(=O)N(Cc1ccccc1)Cc1ccc(/C=C/C(=O)NOC2CCCCO2)cc1 (configuration not stated) | 41000 nM |  |
| COc1cc2c(c(OC)c1OC)-c1ccc(SC)c(=O)cc1[C@@H](NC(=O)CCCSSCCCC(=O)OCCN(Cc1ccccc1)Cc1ccc(/C=C/C(=O)NO)cc1)CC2 | 78 nM | inhibition [6]: Active; Activity (IGROV-1 [7]): 45% |
| O=C(/C=C/c1ccc(CN(CCO)Cc2ccccc2)cc1)NO | 18 nM | inhibition [1]: Dose-dependent effect; inhibition [3]: Dose-dependent effect |
| COc1cc2c(c(OC)c1OC)-c1ccc(SC)c(=O)cc1[C@@H](NC(=O)CCCSSCCCC(=O)O)CC2 | 19 nM |  |
| C/C=C(\C)C(=O)N[C@@H](c1ccccc1)[C@@H](O)C(=O)O[C@H]1C[C@@]2(O)[C@@H](OC(=O)c3ccccc3)[C@@H]3[C@]4(OC(C)=O)CO[C@@H]4C[C@H](O)[C@@]3(C)C(=O)[C@H](OC(C)=O)C(=C1C)C2(C)C [CEPHALOMANNINE] | 300 nM |  |
